Test results from patent US20060008542A1, “Preparation containing a mixture of picrorrhiza and ginkgo for the relief of disease” (priority 2002, published 2006).

Experiments:
[1] = physchem
Text: (§1) By most polar is meant a component (or Component) having log P of −2 or more negative, where P is the Partition Ratio between Octanol/Water.
(§2) The Table immediately below lists the cucurbitacins present in natural Picrorrhiza kurroa together with their log P value.

[2] = test system: neutrophil respiratory burst (PMA-stimulated neutrophils of peripheral blood); experiment: Dihydrorhodamine flow cytometric assay for the effect of plant extracts on neutrophil respiratory burst on peripheral blood; assay type: cell-based, human
Protocol: 3 Dihydrorhodamine Flow Cytometric Assay for the Effect of Plant Extracts on Neutrophil Respiratory Burst on Peripheral Blood An aliquot (200 μg) of every fraction (obtained by the methods described above) was prepared for assay. The left hand column (Extract number) will be the number used to denote that fraction in subsequent studies and corresponds to the Fraction numbers (“BR0000n”) used above reduced to 1,2, etc., by removal of the “BR00000”. Neutrophils kill organisms they have ingested by exposing them to chemicals known as reactive oxygen species (eg. hydrogen peroxide and hydroxyl ions). These are generated by a process known as the neutrophil respiratory burst. […] Respiratory burst occurs when stimulated neutrophils convert molecular oxygen to oxygen radicals through the activation of NADPH-oxidase. In the dihydrorhodamine (DHR) flow cytometric assay, the respiratory burst is used to produce fluorescent molecules that can be detected by flow cytometry. […] The extent of respiratory burst product can be further quantified using the mean fluorescence intensity of the FL-1 channel (MFI). […] Any background fluorescence (as a further control) is estimated using a tube containing only blood and DHR. […]

[3] = log P (Partition Ratio between Octanol/Water); conditions: cucurbitacins present in natural Picrorrhiza kurroa
Text: as §1, §2

Row | Compound | logP [1] | other results
1 | COc1ccc(-c2cc(=O)c3c(O)cc(O)cc3o2)cc1-c1c(O)cc(O)c2c(=O)cc(-c3ccc(O)cc3)oc12 [bilobetin] | ≥ 5 | –
2 | CC(=O)OC(C)(C)/C=C/C(=O)[C@](C)(O)[C@H]1[C@H](O)C[C@@]2(C)[C@@H]3CC=C4[C@H](C[C@H](O)C(=O)C4(C)C)[C@]3(C)C(=O)C[C@]12C [cucurbitacin B] | – | log P [3]: 2.5 ± 0.6
3 | CC(C)(O)/C=C/C(=O)[C@](C)(O)[C@H]1[C@H](O)C[C@@]2(C)[C@@H]3CC=C4[C@@H](C[C@H](O)C(=O)C4(C)C)[C@]3(C)C(=O)C[C@]12C [cucurbitacin D] | – | log P [3]: 1.7 ± 0.6
4 | CC(=O)OC(C)(C)/C=C/C(=O)[C@](C)(O)[C@H]1[C@H](O)C[C@@]2(C)[C@@H]3CC=C4[C@@H](C=C(O)C(=O)C4(C)C)[C@]3(C)C(=O)C[C@]12C [cucurbitacin E] | – | log P [3]: 3.4 ± 0.6
5 | CC(C)(O)/C=C/C(=O)[C@](C)(O)[C@H]1[C@H](O)C[C@@]2(C)[C@@H]3CC=C4[C@@H](C[C@H](O)[C@@H](O)C4(C)C)[C@]3(C)C(=O)C[C@]12C [cucurbitacin F] | – | log P [3]: 1.9 ± 0.6
6 | CC(C)(O)/C=C/C(=O)[C@](C)(O)[C@H]1[C@H](O)C[C@@]2(C)[C@@H]3CC=C4[C@@H](C=C(O)C(=O)C4(C)C)[C@]3(C)C(=O)C[C@]12C [cucurbitacin I] | – | log P [3]: 2.5 ± 0.5
7 | CC(C)(O)CCC(=O)[C@](C)(O)[C@H]1[C@H](O)C[C@@]2(C)[C@@H]3CC=C4[C@@H](C[C@H](O)C(=O)C4(C)C)[C@]3(C)C(=O)C[C@]12C [cucurbitacin R] | – | log P [3]: 1.9 ± 0.6
8 | COc1ccc(-c2cc(=O)c3c(O)cc(O)c(-c4cc(-c5cc(=O)c6c(O)cc(O)cc6o5)ccc4OC)c3o2)cc1 [isoginkgetin] | ≥ 5 | –
9 | CCCCCCCCCCCCCCCCCCCCCCCCCCCCC [nonacosane] | ≥ 5 | –
10 | CC[C@H](/C=C/[C@@H](C)[C@H]1CC[C@H]2[C@@H]3CC=C4C[C@@H](O)CC[C@]4(C)[C@H]3CC[C@]12C)C(C)C [stigmasterol] | ≥ 5 | –
11 | O=C(/C=C/c1ccc(O)c(O)c1)O[C@H]1[C@@H]2C=CO[C@@H](O[C@@H]3O[C@H](CO)[C@@H](O)[C@H](O)[C@H]3O)[C@@H]2[C@@]2(CO)O[C@@H]12 [verminoside] | ≤ -2 | –

The next lines start with results.

Row | logP [1] | Compound | other results
12 | ≥ 5 | CCCCCCCCCCCCCCCCCC(O)CCCCCCCCC (centres unmarked) [10-heptacosanol] | –
13 | ≥ 5 | CCCCCCCCCCCCCCCCCCCC(O)CCCCCCCCC (centres unmarked) [10-nonacosanol] | –
14 | ≥ 5 | CCCCCCCCCCCCCCCCC(O)CCCCCCCCCCCC (centres unmarked) [13-nonacosanol] | –
15 | 1.6 | COc1cc(C(C)=O)ccc1O [Apocynin, 4-hydroxy-3-methoxyacetophenone] | inhibition at 300 µg/mL ([2]; Homo sapiens, Neutrophil, apocynin 300 ug/ml, from calibration curve): 45%; Assay Result ([2]; Table 4, apocynin alone): 48
16 | ≥ 5 | O=c1cc(-c2ccc(O)c(-c3c(O)cc(O)c4c(=O)cc(-c5ccc(O)cc5)oc34)c2)oc2cc(O)cc(O)c12 [amentoflavone] | –
17 | -1.2 | COc1cc(C(C)=O)ccc1O[C@@H]1O[C@H](CO)[C@@H](O)[C@H](O)[C@H]1O [androsin] | –
18 | ≤ -2 | OCC1=C[C@@H](O)[C@@H]2C=CO[C@@H](O[C@@H]3O[C@H](CO)[C@@H](O)[C@H](O)[C@H]3O)[C@H]12 [aucubin] | –
19 | ≤ -2 | OC[C@H]1O[C@@H](O[C@@H]2OC=C[C@H]3[C@H](O)[C@@H]4O[C@]4(CO)[C@@H]23)[C@H](O)[C@@H](O)[C@@H]1O [catalpol] | –
20 | ≥ 5 | COc1cc(O)c2c(=O)cc(-c3ccc(OC)c(-c4c(O)cc(O)c5c(=O)cc(-c6ccc(O)cc6)oc45)c3)oc2c1 [ginkgetin] | –
21 | ≥ 5 | CCCCCCCCCCCCCCCC(=O)OCC(COC(=O)CCCCCCCCCCCCCCC)OC(=O)CCCCCCCCCCCCCCC [tripalmitin] | –
